Here are results for 13 compounds from patent US6596701B1, “S-adenosyl methionine regulation of metabolic pathways and its use in diagnosis and therapy” (MediQuest Therapeutics, Inc., priority 1995, dated 2003).

Where two headings read alike, the source gives them in different places. A value given as a limit tells only on which side of the number the result lay.

The subject of series [1] is gastric mucosal stress ulcers. As to conditions: polyamine-stimulated healing, Wang et al.; cited from earlier work.
The next series deals with SAM concentrations. As to conditions: Bacchi et al. 1987; cited from earlier work.
The subject of another series is puncture wounds. The experiment in a line: Mouse puncture wound model, Experiment 3 (about 6 mm wounds, wound area, varied compositions). Type of series: in vivo. The following applies: comparison of Groups A-D, each compound 0.18 mg/ml. The method, then:
This study was similar to Experiment 2, with the following changes. 1. […] 2. […] 3. Test or control compositions were applied daily. Compounds in each test composition were varied 4. N=10 mice per group 5. The each compound in the test compositions was present at a concentration of 0.18 mg/ml. [table]

The subject of the next series is RSV-infected cells. The following applies: cited from earlier work.
For series [2], the system named is tumor. The following applies: Briggs 1959; tumor size attained prior to treatment was not reduced; cited from earlier work.
The conditions of series [3]: cited from earlier work.
Series [4] addresses methyl transferase which acts on MBP. The following applies: methyl transferase with subunits of 75 and 100 kDa; cited from earlier work.
For the next series, the system named is LDHκ. Put plainly: LDHκ activity in HeLa cell extracts with SAM added. In kind it is biochemical, human. The following applies: addition of SAM to the assay mixture.
A further series concerns AD patients. As to conditions: Cohen et al. 1988; cited from earlier work.
Series [5] has as its system tumor. The following applies: mouse model, cited from earlier work.
For series [6], the system named is genetically diabetic mice. The following applies: Reddi et al. 1988; cited from earlier work.
Series [7] deals with RNA polymerase II and synthesis of RNA. The following applies: biotin-deficient rats, within 2 hours after injection of biotin; cited from earlier work.
The subject of the next series is cultured rat hepatocytes. As to conditions: within 6 hours, cited from earlier work.
The test system of a further series is 3T3 cells. As to conditions: cited from earlier work.
Another series has as its system tRNA in tumor cells. The following applies: tumor-bearing mice; cited from earlier work.
The subject of the next series is injured skin. The following applies: compared to injured skin of saline-treated controls, Smith et al. 1989; cited from earlier work.

Consider `NCCCC(N)(C(=O)O)C(F)F` (racemic) [DL-α-difluoromethylornithine], for which the “healing process of gastric mucosal stress ulcers” value in [1] was “significantly inhibited”. The “increase SAM concentrations” value in the series on SAM concentrations is reported as at most 48 fold.

As for `NC1(C(=O)O)CC1` [ACC, 1-aminocyclopropanecarboxylic acid], the “synergy in promoting wound healing” value in the series with puncture wounds is given as “act synergistically in promoting wound healing”.

In the case of `NC1(C(=O)O)CCCC1` [cycloleucine], the “inhibition of cellular methylation” value with RSV-infected cells (RSV-infected cells, concentrations used) is recorded as 95%. The “RSV-specific mRNAs found” value in the series on RSV-infected cells (concentrations which inhibit 95% of cellular methylation) is on record as “only the 35S viral mRNA is found”.

“avidin: the biotin-binding protein avidin”: the antitumor effects result in the series on tumor [2] is “further tumor growth was prevented”.

Turning to `C[S+](CC[C@H](N)C(=O)O)C[C@H]1O[C@@H](n2cnc3c(N)ncnc32)[C@H](O)[C@@H]1O.C[S+](CC[C@H](N)C(=O)O)C[C@H]1O[C@@H](n2cnc3c(N)ncnc32)[C@H](O)[C@@H]1O.O=S(=O)([O-])[O-]` (stereo partly drawn) [SAM sulfate], in series [3] (4° C.), the “stable for” value is 6 months.

For the compound `C[S+](CC[C@H](N)C(=O)O)C[C@H]1O[C@@H](n2cnc3c(N)ncnc32)[C@H](O)[C@@H]1O.[Cl-]` (stereo partly drawn) [chloride salt of SAM], the “loss of activity per day” value in series [3] (25° C.) is 10 % of activity per day.

Take `C[C@@H]1NC(=O)N[C@@H]1CCCCCC(=O)O` [desthiobiotin, reference compound]: the antitumor effects result with tumor [2] is on record as “further tumor growth was prevented”.

For orientation: Ki means a measure of affinity in units of concentration, obtained from inhibition or displacement. With `Nc1ncnc2c1ncn2[C@@H]1O[C@H](CSCC[C@H](N)C(=O)O)[C@@H](O)[C@H]1O` [SAH, S-adenosyl-L-homocysteine], in series [4], the Ki is 1000 nM.

Take `C[S+](CC[C@H](N)C(=O)O)C[C@H]1O[C@@H](n2cnc3c(N)ncnc32)[C@H](O)[C@@H]1O` (stereo partly drawn) [SAM, S-adenosyl-L-methionine]: the “increase in activity of LDHκ” value in the series on LDHκ is recorded as 8-10 fold. In the series on AD patients, the membrane fluidity result is recorded as “increased of membrane fluidity” and the symptoms entry was “no improvement nor worsening of symptoms”.

Consider `Nc1nc2[nH]cc(CN[C@H]3C=C[C@H](O)[C@@H]3O)c2c(=O)[nH]1` [queuine], for which the effect on tumor entry in the series with tumor [5] (Katze et al. 1980) is recorded as “shrinkage of the tumor”; in the series on tumor [5] (Nishimura et al. 1983, cancer of different type) it was “no effect”.

Take `O=C(O)CCCC[C@@H]1SC[C@@H]2NC(=O)N[C@@H]21` [biotin]: in series [6], the “glucose and insulin tolerance” value was “improves glucose and insulin tolerance”. In series [7], the “increase in RNA polymerase II” value is on record as 2 fold and the “increase in the synthesis of RNA” value was 2 fold. Also, the increase in glucokinase in the series on cultured rat hepatocytes (required the presence of insulin) was 4 fold. Besides, the “increase in cGMP” value with cultured rat hepatocytes is 3 fold. Also, in the series on 3T3 cells (differentiation with biotin), the GAPDH increased is on record as 8 fold, the aldolase increased is on record as 20-30 fold and the glycerophosphate dehydrogenase increased is 2,000 fold. Moreover, the “actin, % of total protein after treatment” value in the series on 3T3 cells (from 12.7% prior to treatment with biotin) was 3.2 % of total protein. In addition, in the series on puncture wounds, the “synergy in promoting wound healing” value was “act synergistically in promoting wound healing”.

With `Nc1nc2c(c(CN[C@H]3C=C[C@H](O)[C@@H]3O)cn2[C@@H]2O[C@H](CO)[C@@H](O)[C@H]2O)c(=O)[nH]1` [queuosine], in the series with tRNA in tumor cells, the “conversion of G-tRNA to QtRNA in tumor cells” value is recorded as “complete conversion”.

For the compound `NC(=O)c1cccnc1` [nicotinamide], the “capillary density in injured skin” value in the series on injured skin is “increases the capillary density in injured skin significantly”.
